Key:
[1] = system: male C57BL mice; assay: In vivo stimulation of intestinal growth, 200 nmol/kg (Example 11); details: for Sensitivity index Si/Colon: relative to 1559
Description: The ability of further compounds to selectively stimulate small intestinal mass, relative to colon mass was determined in male C57BL mice. A similar protocol was used to that described above in Example 10 except that 200 nmol/kg of each compound was administered per day. Thus, individual groups (n=6-10) of mice were given 200 nmol/kg of each compound, s.c, once daily for three consecutive days. Other groups of animals were given either an equimolar dose of [[…]]GLP-2 (reference compound) or vehicle (phosphate buffered saline, pH 7.4; negative controls) in the same dosing regimen. Twenty-four hours after the last dose of compound the mice were sacrificed and the stomach, small intestine and the colon emptied and weighed.

[2] = system: male C57BL mice; assay: In vivo stimulation of stomach growth, 200 nmol/kg (Example 12)
Description: The effects of the test compounds according to the invention were determined based on the ability of the peptides to selectively increase stomach mass, relative to vehicle control. The ability of the present compounds (ZP2395, ZP2396, ZP2400, ZP2412, ZP2394 and ZP2401) to selectively stimulate stomach mass, relative to colon mass was determined in male C57BL mice. Individual groups (n=6-10) of mice were given 200 nmol/kg of each compound, s.c, once daily for three consecutive days. For comparison purposes other groups of animals were given either an equimolar dose of [[…]]GLP-2 or vehicle (phosphate buffered saline, pH 7.4) in the same dosing regimen. Twenty-four hours after the last dose of compound had been given the mice were sacrificed and the stomach and small intestine (from the pylorus to the ileocaecal junction) emptied and weighed. To correct for slight difference in body weight (BW), the organ mass of the stomach is presented relative to BW. […] To evaluate the differential growth pattern induced by ZP compounds, compared to [[…]]GLP-2, on the stomach, the stomach-colon sensitivity index of compound X was calculated as: (Stomach/Colon)x/Stomach/(Colon)[[…]]GLP-2% Compounds with a stomach/colon sensitivity greater than or equal to 1.05 were considered relatively selective for the stomach.

[3] = 200 nmol/kg s.c. once daily for 3 days
[4] = 200 nmol/kg s.c. once daily for 3 days, relative to 1559
[5] = colon weight relative to body weight, relative to ZP1559
[6] = small intestine weight relative to body weight, relative to ZP1559

Substance | Colon-BW, compared to 1559 in % [1, 3] [%] | Organ selectivity (FIG. 8, unselective compounds) [1, 3] | SI-BW, compared to 1559 in % [1, 3] [%] | Sensitivity index Si/Colon [1, 3] | Selectivity for stomach mass relative to colon mass (FIG. 7) [2, 3] | Sto-BW, compared to 1559 in % [2, 3] [%] | Sensitivity index Stomach/Co [2, 4] | Preferential stimulation of epithelial growth in the small intestine (summary) [1, 3] | Selectivity for small intestinal mass relative to colon mass (FIG. 6) [1, 3] | Colon-BW, compared to 1559 in % [1, 5] [%] | SI-BW, compared to 1559 in % [1, 6] [%] | Sensitivity index Stomach/Co ([2]; ratio Stomach-BW / Colon-BW) | Preferential stimulation of epithelial growth in the stomach (summary) [2, 3]
H-HGEGSFSDELATILESLAAADFIAWLIATKITD-NH2 [ZP2414] | 106 | unselective for the small intestine, colon or stomach | 105 | 0.99 | selectively increase stomach mass, relative to colon mass | 110 | 1.04 |  |  |  |  |  | 
H-HGEGSFSDELATILEALAAADFIAWLISTKITDKKKKKK-NH2 [ZP2384] | 118 |  | 128 | 1.08 |  | 100 | 0.85 | preferentially stimulating epithelial growth in the small intestine | selectively increase small intestinal mass, relative to colon mass | 118 | 128 | 0.85 | 
H-HGEGSFSDELATILESLAASDFISWLISTKITDKKKKKK-NH2 [ZP2386] | 111 | unselective for the small intestine, colon or stomach | 113 | 1.02 |  | 95 | 0.86 |  |  |  |  |  | 
H-HGEGSFSDELATILEALAAADFISWLIATKITD-NH2 [ZP2418] | 100 |  | 117 | 1.17 |  | 91 | 0.91 | preferentially stimulating epithelial growth in the small intestine | selectively increase small intestinal mass, relative to colon mass | 100 | 117 | 0.91 | 
H-HGEGSFSDELATILEALAAADFIAWLISTKITD-NH2 [ZP2397] | 101 |  | 122 | 1.21 |  | 109 | 1.08 | preferentially stimulating epithelial growth in the small intestine | selectively increase small intestinal mass, relative to colon mass | 101 | 122 | 1.08 | 
H-HGEGSFSDELLTILELLAALDFIAWLIATKITDKKKKKK-NH2 [ZP2416] | 92 | unselective for the small intestine, colon or stomach | 89 | 0.97 | selectively increase stomach mass, relative to colon mass | 96 | 1.04 |  |  |  |  |  | 
H-HGEGSFSDELLTILELLAALDFILWLILTKITDKKKKKK-NH2 [ZP2424] | 98 | unselective for the small intestine, colon or stomach | 86 | 0.88 |  | 91 | 0.93 |  |  |  |  |  | 
H-HGEGSFSDELSTILEALAASDFISWLISTKITDKKKKKK-NH2 [ZP2385] | 95 |  | 110 | 1.16 |  | 93 | 0.98 | preferentially stimulating epithelial growth in the small intestine | selectively increase small intestinal mass, relative to colon mass | 95 | 110 | 0.98 | 
H-HGEGSFSDELLTILELLAASDFISWLISTKITDKKKKKK-NH2 [ZP2394] | 96 |  | 105 | 1.09 | selectively increase stomach mass, relative to colon mass | 109 | 1.14 |  |  | 96 | 105 | 1.14 | preferentially stimulating epithelial growth in the stomach
H-HGEGSFSDELSTILEALAAADFIAWLIATKITD-NH2 [ZP2420] | 101 |  | 112 | 1.11 |  | 90 | 0.89 | preferentially stimulating epithelial growth in the small intestine | selectively increase small intestinal mass, relative to colon mass | 101 | 112 | 0.89 | 
H-HGEGSFSDELFTILEFLAASDFISWLISTKITD-NH2 [ZP2401] | 88 |  | 98 | 1.11 | selectively increase stomach mass, relative to colon mass | 107 | 1.22 |  |  | 88 | 98 | 1.22 | preferentially stimulating epithelial growth in the stomach
H-HGEGSFSDELSTILEALAAADFIAWLIATKITDKKKKKK-NH2 [ZP2404] | 115 | unselective for the small intestine, colon or stomach | 114 | 0.99 |  | 103 | 0.90 |  |  |  |  |  | 
H-HGEGSFSDELATILEALAASDFIAWLIATKITD-NH2 [ZP2417] | 106 |  | 119 | 1.12 |  | 90 | 0.85 | preferentially stimulating epithelial growth in the small intestine | selectively increase small intestinal mass, relative to colon mass | 106 | 119 | 0.85 | 
H-HGEGSFSDELKTILESLAAADFIEWLIQTKITDKKKKKK-NH2 [ZP2379] | 97 | unselective for the small intestine, colon or stomach | 88 | 0.91 |  | 99 | 1.02 |  |  |  |  |  | 
H-HGEGSFSDELSTILESLAAADFIAWLIATKITDKKKKKK-NH2 [ZP2403] | 109 | unselective for the small intestine, colon or stomach | 110 | 1.01 |  | 107 | 0.98 |  |  |  |  |  | 
H-HGEGSFSDELATILESLAASDFISWLISTKITD-NH2 [ZP2399] | 103 |  | 119 | 1.16 |  | 115 | 1.12 | preferentially stimulating epithelial growth in the small intestine | selectively increase small intestinal mass, relative to colon mass | 103 | 119 | 1.12 | 
H-HGEGSFSDELLTILELLAASDFISWLISTKITD-NH2 [ZP2400] | 106 |  | 106 | 1.00 | selectively increase stomach mass, relative to colon mass | 111 | 1.05 |  |  | 106 | 106 | 1.05 | preferentially stimulating epithelial growth in the stomach
